Experimental data published in the SangsterLogP compilation.

logP | Structure (SMILES)
4.47 | COc1c(Br)ccc(Cl)c1Cl
3.75 | COc1ccc(Br)cc1Br
3.23 | COc1cccc(Br)c1
3.59 | COc1ccc(Cl)cc1Br
3.19 | COc1c(Cl)cccc1Cl
3.15 | COc1ccc(Br)cc1
3.44 | COc1c(Cl)cccc1Br
3.42 | COc1c(Br)cccc1Br
4.97 | COc1c(Br)cc(Br)c(Cl)c1Cl
5.29 | COc1c(Br)cc(Br)c(Cl)c1Br
3.77 | COc1ccc(Br)cc1Cl
4.33 | COc1c(Br)cc(Cl)cc1Br
2.87 | COc1ccccc1Br

More lines, now with the values behind:

Structure (SMILES) | logP
COc1cc(Cl)c(Cl)cc1Cl | 3.95
COc1c(Br)cc(Cl)c(Cl)c1Cl | 4.64
COc1cc(Cl)cc(Cl)c1Br | 4.39
COc1cc(Cl)c(Cl)c(Cl)c1Cl | 4.57
COc1ccc(Cl)cc1Cl | 3.46
COc1cc(Cl)c(Br)c(Cl)c1Br | 5.29
COc1c(Br)c(Br)c(Br)c(Br)c1Br | 5.43
COc1ccc(Br)c(Cl)c1Cl | 4.47
COc1cc(Cl)cc(Cl)c1Cl | 4.05
COc1c(Cl)cc(Cl)cc1Br | 4
COc1c(Cl)cc(Br)c(Cl)c1Cl | 4.66
COc1c(Cl)c(Cl)cc(Br)c1Br | 5.29
COc1cc(Br)c(Cl)cc1Cl | 4.47
COc1c(Cl)cc(Br)cc1Cl | 4.02
COc1c(Cl)ccc(Cl)c1Cl | 3.76
COc1c(Cl)c(Cl)c(Cl)c(Cl)c1Cl | 5.16
COc1ccccc1Cl | 2.72
COc1cccc(Cl)c1Cl | 3.3
COc1ccc(Cl)c(Cl)c1 | 3.55
COc1c(Cl)c(Cl)c(Br)c(Cl)c1Cl | 5.26
COc1cc(Cl)ccc1Cl | 3.27
COc1cc(Cl)c(Br)c(Cl)c1 | 4.39
COc1cc(Cl)c(Cl)c(Cl)c1Br | 4.97
COc1c(Cl)c(Cl)cc(Br)c1Cl | 4.66
COc1c(Br)c(Cl)c(Cl)c(Cl)c1Br | 5.55
